Measured values as given in patent publication US11498921B1, “Pyrimidine or pyridine compounds, preparation method therefor and pharmaceutical uses thereof” (INVENTISBIO CO., LTD., priority 2014, dated 2022).
Where a name gives a salt, the structure may show the parent alone.

Key:
Assay type in all cases: cell-based
[1] = tested on: LoVo cells (wild-type EGFR human colon adenocarcinoma); experiment: Cell growth inhibition (Cell Titer-Glo), LoVo; settings: 72 hours drug treatment, 3 nM to 10 μM
Experimental: (§1) Experiment of Cell Growth Inhibition
(§2) The LoVo cell line is a wild-type EGFR human colon adenocarcinoma cell, and is grown in F-12K medium (GIBCO) containing 10% FBS. NCI-H2073 cell line is a wild-type EGFR human non-small cell lung cancer cell and grown in ACL-4 medium containing 10% FBS. The growth rate of NCI-H1975, LoVo and NCI-H2073 cells was detected by Cell Titer-Glo luminescence activity assay (Promega #G7572).
(§3) Briefly, trypsin was used for digesting cells in the logarithmic growth phase. 96-well plates were seeded with 50,000 Lovo or NCI-H2073 cells, 2500-3000 NCI-H1975 cells per well and provided with blank control wells containing only nutrient solution without inoculated cell, and the plates were incubated in a humidified incubator with 5% CO2 at 37° C. […] The concentration of test drug in NCI-H1975 cells was from 0.03 nM to 100 nM, and that in LoVo and NCI-H2073 cells was from 3 nM to 10 μM. The cell culture medium containing the different compounds was then added to a 96-well cell plate in which one cell control well comprising cell culture medium only containing DMSO was provided. After a drug treatment for 72 hours, the cell plates were removed from the incubator and allowed to stand at room temperature for 30 minutes. Next, Cell Titer-Glo reagent was added to the wells and the 96-well cell plate was shaken at room temperature for 10 minutes to induce cell lysis. The 96-well cell plate was placed on the bench for 2 minutes to stabilize the luminescence signal. Finally, the 96-well cell plate was placed in an EnVision Multi-labeled Microplate Reader (PerkinElmer), and the signal was read with an integral time of 0.5 seconds.
(§4) Formula: Percentage of cell growth inhibition %=(maximum signal−compound signal)/(maximum signal−minimum signal)*100%
(§5) The maximal signal was obtained from the cell control well which were treated with the DMSO solution having no any compound;
(§6) The compound signal was obtained from the drug-treated cell wells to which the compound was added;
(§7) The minimum signal was obtained from a blank control well to which no cells and only nutrient solution was added.

[2] = tested on: NCI-H1975 cells (T790M and L858R EGFR mutations); experiment: Cell growth inhibition (Cell Titer-Glo), NCI-H1975; settings: Homo sapiens, 72 hours drug treatment, 0.03 nM to 100 nM
Experimental: as §1, §2, §3, §4, §5, §6, §7

[3] = tested on: NCI-H2073 cells (wild-type EGFR human non-small cell lung cancer); experiment: Cell growth inhibition (Cell Titer-Glo), NCI-H2073; settings: 72 hours drug treatment, 3 nM to 10 μM
Experimental: as §1
as §2, with “The compounds that were preferentially targeted for EGFR targeting certain mutations and relatively weak in wild-type EGFR were identified by determining the growth of cells. The NCI-H1975 cell line is a human non-small cell lung cancer cell containing T790M and L858R EGFR mutations, and the cell is grown in RPMI-1640 medium (GIBCO) containing 10% fetal bovine serum (FBS). The LoVo” for “The LoVo”
Briefly, trypsin was used for digesting cells in the logarithmic growth phase. 96-well plates were seeded with 50,000 Lovo or NCI-H2073 cells, 2500-3000 NCI-H1975 cells per well and provided with blank control wells containing only nutrient solution without inoculated cell, and the plates were incubated in a humidified incubator with 5% CO2 at 37° C. After 24 hours, the DMSO solution of the different compounds was diluted with a cell culture medium at 3.16 times per time to eight different concentrations from high to low levels. The concentration of test drug in NCI-H1975 cells was from 0.03 nM to 100 nM, and that in LoVo and NCI-H2073 cells was from 3 nM to 10 μM. The cell culture medium containing the different compounds was then added to a 96-well cell plate in which one cell control well comprising cell culture medium only containing DMSO was provided. After a drug treatment for 72 hours, the cell plates were removed from the incubator and allowed to stand at room temperature for 30 minutes. Next, Cell Titer-Glo reagent was added to the wells and the 96-well cell plate was shaken at room temperature for 10 minutes to induce cell lysis. The 96-well cell plate was placed on the bench for 2 minutes to stabilize the luminescence signal. Finally, the 96-well cell plate was placed in an EnVision Multi-labeled Microplate Reader (PerkinElmer), and the signal was read with an integral time of 0.5 seconds.
as §4, §5, §6, §7

Row | IC50 [1] [nM] | IC50 [2] [nM] | IC50 [3] [nM] | SMILES
1 | 444 | > 100 | – | C=CC(=O)Nc1cc(Nc2nccc(-c3cn(C)c4ccccc34)n2)c(OC)cc1N1CCC(N(C)C)CC1 [13. (MsOH)2]
2 | > 10000 | > 100 | – | C=CC(=O)Nc1cc(Nc2nccc(-c3cn(C)c4ccccc34)n2)c(OC)cc1OCCOC [32. (MsOH)]
3 | – | 1.5 | 29 | [2H]C([2H])([2H])N(CCN(C)c1cc(OC)c(Nc2nccc(-n3c(=O)[nH]c4ccccc43)n2)cc1NC(=O)C=C)C([2H])([2H])[2H] [61. (HCl)n]
4 | 3020 | > 100 | – | C=CC(=O)Nc1cc(Nc2nccc(-c3cn(C)c4ccccc34)n2)c(OC)cc1N(C)CCS(C)(=O)=O [10. (MsOH)3]
5 | 1430 | > 100 | – | C=CC(=O)Nc1cc(Nc2nccc(-c3cn(C)c4ccccc34)n2)c(OC)cc1N(CCOC)CCOC [33. HCl]
6 | 4980 | > 100 | – | C=CC(=O)Nc1cc(Nc2nccc(-c3cn(C)c4ccccc34)n2)c(OC)cc1N(C)CCOC [6. (HCl)n]
7 | – | 2.7 | 49 | C=CC(=O)Nc1cc(Nc2nccc(N3c4ccccc4N(CC)S3(=O)=O)n2)c(OC)cc1N(C)CCN(C)C [111. (MsOH)2]
8 | – | 1.9 | 151 | [2H]C([2H])([2H])n1c(=O)n(-c2ccnc(Nc3cc(NC(=O)C=C)c(N(C)CCN(C)C)cc3OC)n2)c2ccccc21 [65. (MsOH)2]
9 | – | 1.6 | 116 | [2H]C([2H])([2H])N(CCN(C)c1cc(OC)c(Nc2nccc(-n3c(=O)n(C)c4ccccc43)n2)cc1NC(=O)C=C)C([2H])([2H])[2H] [58. (HCl)n]
10 | – | 1 | 56 | [2H]C([2H])([2H])N(CCN(C)C)c1cc(OC)c(Nc2nccc(-n3c(=O)n(C([2H])([2H])[2H])c4ccccc43)n2)cc1NC(=O)C=C [76. (MsOH)2]
11 | – | 1.7 | 179 | [2H]C([2H])([2H])N(CCN(C)C)c1cc(OC)c(Nc2nccc(-c3cn(CC)c4ccccc34)n2)cc1NC(=O)C=C [73. (MsOH)2]
12 | – | 3.2 | 270 | [2H]C([2H])([2H])N(CCN(C)c1cc(OC)c(Nc2nccc(N3CCc4ccccc43)n2)cc1NC(=O)C=C)C([2H])([2H])[2H] [62. (HCl)n]
13 | – | 8.2 | 280 | [2H]C([2H])([2H])N(CCN(C)c1cc(OC)c(Nc2nccc(N3CC(C)(C)c4ccccc43)n2)cc1NC(=O)C=C)C([2H])([2H])[2H] [57. (HCl)n]
14 | 481 | > 100 | – | C=CC(=O)Nc1cc(Nc2nccc(-c3cn(C)c4ccccc34)n2)c(OC)cc1N1CCC(N2CCC2)CC1 [14. (MsOH)2]
15 | – | 7.4 | 185 | C=CC(=O)Nc1cc(Nc2nccc(-n3c(=O)n(C4CC4)c4ccccc43)n2)c(OC)cc1N(C)CCN(C)C [107. (MsOH)2]
16 | 3230 | > 100 | – | C=CC(=O)Nc1cc(Nc2nccc(-n3nc(C)c4ccccc43)n2)c(OC)cc1N(C)CCN(C)C [55. (HCl)n]
17 | – | 0.8 | 63 | [2H]C([2H])([2H])N(CCN(C)c1cc(OC)c(Nc2nccc(-n3c(=O)n(CC)c4ccccc43)n2)cc1NC(=O)C=C)C([2H])([2H])[2H] [69. (MsOH)3]
18 | 738 | 38.2 | – | C=CC(=O)Nc1cc(Nc2nccc(-c3cn(C)c4ccccc34)n2)c(OC)cc1N(C)CCN(C)CCOC [54. (HCl)n]
19 | – | 3.6 | 201 | C=CC(=O)Nc1cc(Nc2nccc(-n3c(=O)n(CC)c4ccccc43)n2)c(OC)cc1N(C)CCN(C)C [66. (MsOH)3]
20 | 1620 | 134 | – | C=CC(=O)Nc1cc(Nc2nccc(-c3cn(C)c4ccccc34)n2)c(OC)cc1N(C)CCCN(C)C [47. (MsOH)2]
21 | 5130 | > 100 | – | C=CC(=O)Nc1cc(Nc2nccc(-c3cn(C)c4ccccc34)n2)c(OC)cc1N1CCC(N2CCOCC2)C1 (stereo not shown) [26. (MsOH)2]

Row | IC50 [1] [nM] | IC50 [2] [nM] | IC50 [3] [nM] | SMILES
22 | 2580 | > 100 | – | C=CC(=O)Nc1cc(Nc2nccc(-c3cn(C)c4ccccc34)n2)c(OC)cc1N1CC(N2CCN(C)CC2)C1 [24. (MsOH)3]
23 | 954 | > 100 | – | C=CC(=O)Nc1cc(Nc2nccc(-c3cn(C)c4ccccc34)n2)c(OC)cc1N1CCC(N2CCN(C)CC2)C1 (stereo not shown) [20. (MsOH)4]
24 | > 10000 | > 100 | – | C=CC(=O)Nc1cc(Nc2nccc(-c3cn(C)c4ccccc34)n2)c(OC)cc1N1CC(OC)C1 [21. (MsOH)2]
25 | 2280 | 90.8 | – | C=CC(=O)Nc1cc(Nc2nccc(-c3cn(C)c4ccccc34)n2)c(OC)cc1N1CC(N2CCCC2)C1 [Example 23]
26 | 5250 | > 100 | – | C=CC(=O)Nc1cc(Nc2nccc(-c3cn(C)c4ccccc34)n2)c(OC)cc1N1CC(N2CCOCC2)C1 [25. (MsOH)2]
27 | 333 | > 100 | – | C=CC(=O)Nc1cc(Nc2nccc(-c3cn(C)c4ccccc34)n2)c(OC)cc1N1CCC(N2CCCC2)CC1 [15. (MsOH)2]
28 | 1170 | 155 | – | C=CS(=O)(=O)Nc1cc(Nc2nccc(-c3cn(C)c4ccccc34)n2)c(OC)cc1N(C)CCN1CCCC1 [46. (MsOH)2]
29 | 2170 | 18.1 | – | C=CC(=O)Nc1cc(Nc2cc(-c3cn(C)c4ccccc34)ccn2)c(OC)cc1N(C)CCN(C)C [43. (HCl)n]
30 | 1810 | 84 | – | C=CC(=O)Nc1cc(Nc2nccc(-c3cn(C)c4ccccc34)n2)c(OC)cc1N1CCC(N2CCOCC2)CC1 [27. (MsOH)3]
31 | 955 | 48.5 | – | C=CC(=O)Nc1cc(Nc2nccc(-c3cn(C)c4ccccc34)n2)c(OC)cc1N1CCC(N2CCCC2)C1 (stereo not shown) [19. MsOH]
32 | 1270 | 35.4 | – | C=CC(=O)Nc1cc(Nc2nccc(-c3cn(C)c4ccccc34)n2)c(OC)cc1N(C)CCN1CCC1 [11. (MsOH)2]
33 | 538 | > 100 | – | C=CC(=O)Nc1cc(Nc2nccc(-c3cn(C)c4ccccc34)n2)c(OC)cc1OC1CN(C)C1 [Example 28]
34 | 1720 | 35.2 | – | C=CC(=O)Nc1cc(Nc2nccc(-c3cn(C)c4ccccc34)n2)c(OC)cc1N(C)CCN1CCCC1 [12. (MsOH)2]
35 | 846 | > 100 | – | C=CC(=O)Nc1cc(Nc2nccc(-c3cn(C)c4ccccc34)n2)c(OC)cc1OCCN1CCN(C)CC1 [31. (MsOH)3]
36 | 446 | 39.9 | – | C=CC(=O)Nc1cc(Nc2nccc(-c3cn(C)c4ccccc34)n2)c(OC)cc1N1CCCC(N(C)C)C1 (stereo not shown) [34. (MsOH)3]
37 | 520 | 43.6 | – | C=CC(=O)Nc1cc(Nc2nccc(-c3cn(C)c4ccccc34)n2)c(OC)cc1N1CCC(N2CCC2)C1 (stereo not shown) [18. (MsOH)3]
38 | > 10000 | > 100 | – | C=CC(=O)Nc1cc(Nc2nccc(-c3cn(C)c4ccccc34)n2)c(OC)cc1N1CCC(OC)C1 (stereo not shown) [17. (MsOH)2]
39 | 1090 | > 100 | – | C=CS(=O)(=O)Nc1cc(Nc2nccc(-c3cn(C)c4ccccc34)n2)c(OC)cc1N(C)CCN(C)C [45. (HCl)n]
40 | 2550 | > 100 | – | C=CC(=O)Nc1cc(Nc2nccc(-c3cn(C)c4ccccc34)n2)c(OC)cc1OCCN1CCOCC1 [30. (MsOH)2]
41 | 912 | 48.4 | – | C=CC(=O)Nc1cc(Nc2nccc(N3CCCc4ccccc43)n2)c(OC)cc1N(C)CCN(C)C [35. (MsOH)3]
